Measurements as given in ChEMBL document CHEMBL1201862, “PubChem BioAssay data set” (2004).
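How tested: cells in 96-well plates exposed to compound for 48 hours at five concentrations. Abbreviation: GI50, concentration required for 50% inhibition of growth.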 Calls of active or inactive are those of the source. Cut-off read from the data, not from the text of the source: active = GI50 up to about 1.1 µM and inactive = higher.

Key:
Experiment in all cases: NCI-60 cell line screen, 48 h
U-251 = system: U-251
SK-MEL-28 = system: SK-MEL-28
SK-MEL-2 = system: SK-MEL-2
Hs-578T = system: Hs-578T
NCI/ADR-RES = system: NCI/ADR-RES
COLO 205 = system: COLO 205
SF-539 = system: SF-539
UACC-62 = system: UACC-62
RXF 393 = system: RXF 393
LOX IMVI = system: LOX IMVI
OVCAR-3 = system: OVCAR-3
NCI-H460 = system: NCI-H460
SNB-75 = system: SNB-75
M14 = system: M14
SNB-19 = system: SNB-19
K562 = system: K562
UO-31 = system: UO-31
SK-MEL-5 = system: SK-MEL-5
PC-3 = system: PC-3
HT-29 = system: HT-29

Compound | GI50 (U-251) | GI50 (SK-MEL-28) | GI50 (SK-MEL-2) | GI50 (Hs-578T) | GI50 (NCI/ADR-RES) | GI50 (COLO 205) | GI50 (SF-539) | GI50 (UACC-62) | GI50 (RXF 393) | GI50 (LOX IMVI) | GI50 (OVCAR-3) | GI50 (NCI-H460) | GI50 (SNB-75) | GI50 (M14) | GI50 (SNB-19) | GI50 (K562) | GI50 (UO-31) | GI50 (SK-MEL-5) | GI50 (PC-3) | GI50 (HT-29)
COc1nc(C#CCCCC#N)nc(OC)n1 | 13.4 µM (inactive) | 15.5 µM (inactive) | 16 µM (inactive) | 40.8 µM (inactive) | 28.5 µM (inactive) | 29.9 µM (inactive) | 20.5 µM (inactive) | 9.62 µM (inactive) | 15.6 µM (inactive) | 2.08 µM (inactive) | 13.3 µM (inactive) | 26.3 µM (inactive) | 19.5 µM (inactive) | 22.2 µM (inactive) | 77.3 µM (inactive) | 17.9 µM (inactive) | 11.1 µM (inactive) | 13.3 µM (inactive) | 13.2 µM (inactive) | 24.3 µM (inactive)
Cc1cc(-c2nc3cc(F)ccc3s2)ccc1NC(=O)C(C)N (stereo not given) | 4.36 µM (inactive) | 5.25 µM (inactive) | 4.11 µM (inactive) | 4.95 µM (inactive) | 4.79 µM (inactive) | 9.23 µM (inactive) | 10.4 µM (inactive) | 4.02 µM (inactive) | 3.75 µM (inactive) | 4.42 µM (inactive) | 3.41 µM (inactive) | 0.955 µM (active) | 5.05 µM (inactive) | 4.93 µM (inactive) | 4.72 µM (inactive) | 5.62 µM (inactive) | 3.7 µM (inactive) | 9.84 µM (inactive) | 4.13 µM (inactive) | 4.12 µM (inactive)
CC(C)NCC(O)c1ccc(OCc2ccccc2)c(OCc2ccccc2)c1-c1ccccc1 (stereo not given) | 1.67 µM (inactive) | 1.76 µM (inactive) | 2.7 µM (inactive) | 1.34 µM (inactive) | 2 µM (inactive) | 1.7 µM (inactive) | 1.58 µM (inactive) | 1.41 µM (inactive) | 3 µM (inactive) | 3.07 µM (inactive) | 1.8 µM (inactive) | 1.79 µM (inactive) | 1.28 µM (inactive) | 1.93 µM (inactive) | 2.6 µM (inactive) | 1.63 µM (inactive) | 2.52 µM (inactive) | 1.25 µM (inactive) | 1.53 µM (inactive) | 1.66 µM (inactive)
CCC1C(NC(=O)OC)C(=O)N1[C@@H](C)c1ccccc1 (stereo not given in full) | > 100 µM (inactive) | > 100 µM (inactive) | > 100 µM (inactive) | > 100 µM (inactive) | > 100 µM (inactive) | > 100 µM (inactive) | > 100 µM (inactive) | > 100 µM (inactive) | > 100 µM (inactive) | > 100 µM (inactive) | > 100 µM (inactive) | > 100 µM (inactive) | 82.6 µM (inactive) | > 100 µM (inactive) | > 100 µM (inactive) | > 100 µM (inactive) | > 100 µM (inactive) | > 100 µM (inactive) | > 100 µM (inactive) | > 100 µM (inactive)
O=C(O)[C@@H]1C[C@@H](O)CN1C(=O)OCc1ccccc1 | > 100 µM (inactive) | > 100 µM (inactive) | > 100 µM (inactive) | > 100 µM (inactive) | > 100 µM (inactive) | > 100 µM (inactive) | > 100 µM (inactive) | > 100 µM (inactive) | > 100 µM (inactive) | > 100 µM (inactive) | > 100 µM (inactive) | > 100 µM (inactive) | 1.16 µM (inactive) | > 100 µM (inactive) | > 100 µM (inactive) | > 100 µM (inactive) | > 100 µM (inactive) | > 100 µM (inactive) | > 100 µM (inactive) | > 100 µM (inactive)
